# Laboratory results from US20260355213A1, “TREATMENT OF INFECTIONS CAUSED BY INTRACELLULAR PATHOGENS” (Sheba Impact Ltd., priority 2023, published 2026).
# Experiments:
# [1] = test system: Listeria monocytogenes in HeLa cells; experiment: Intracellular Listeria monocytogenes infection of HeLa cells (CFU at 6 h p.i.); assay type: cell-based; details: 10 μM
# Description: 4×10^5 HeLa cells were seeded in a 24-well tissue culture treated plate and incubated for 24 h at 37 °C under 5% CO2 atmosphere. On the next day, cells were incubated for 3 h with fresh DMEM supplemented with the PCM-0094889, PCM-0086166, PCM-0004846, PCM-0103431, PCM-0095494, PCM-0095293, PCM-0001349, and PCM-0095564 compounds at a final concentration of 10 μM. overnight cultures of Listeria monocytogenes that were grown statically at 37 °C were washed and resuspended in PBS. Cell infection at am MOI of 1:50 was conducted by adding 20 μl of Listeria suspension to each well, following by incubation at 37 °C under 5% CO2 atmosphere. 30 min p.i. the cells were washed with PBS and the medium was replaced with fresh medium supplemented with 10 μM of the tested compounds. One h p.i., gentamycin was added to each well at a final concentration of 50 μg/ml. At 6 h p.i., the cells were washed with PBS and lysed with 250 μl DDW at room temperature. The cell lysates were then diluted in PBS and plated on LB plates for CFU count. Intracellular Listeria infection was calculated as the number of intracellular bacteria recovered at 6 h p.i., divided by the infecting inoculum (CFUs). Listeria infection in the presence of the compounds is shown relative to the number of intracellular bacteria that were recovered from cells that were not treated with the compounds. The charts show the mean and standard error of the mean (SEM) of six biological repeats in two independent experiments, biological repeats.
# caspase 3 = experiment: Caspase 3 activity in HeLa cells (Multiplex Activity Fluorometric Assay Kit); assay type: cell-based, human; details: HeLa cells infected with S. Typhimurium
# From the text: (§1) One of the possible mechanisms that could explain the activity of the compounds in inhibiting infection by different pathogens is inducing programed cell death in infected cells. To examine this experimentally, the present inventors have used Caspase-3, Caspase-8 and Caspase-9 Multiplex Activity Fluorometric Assay Kit (ab219915) to monitor caspase 3, caspase 8 and caspase 9 activity in HeLa cells infected with S. Typhimurium in the presence and absence of the compounds.
# caspase 8 = experiment: Caspase 8 activity in HeLa cells (Multiplex Activity Fluorometric Assay Kit); assay type: cell-based, human; details: HeLa cells infected with S. Typhimurium
# From the text: as §1
compound,measurement,setting,value
CN1CCN(CCOc2cc(OC3CCOCC3)c3c(Nc4c(Cl)ccc5c4OCO5)ncnc3c2)CC1 [Compound 1],inhibition of Listeria monocytogenes infection of HeLa cells,[1],able to actively inhibit
COc1ccccc1C1(CCNCc2ccc(N(C)C)cc2)CCOC(C)(C)C1 (stereo not shown) [Compound 4],caspase 3 activity in infected cells,caspase 3,significantly higher activity
same,inhibition of Listeria monocytogenes infection of HeLa cells,[1],able to actively inhibit
O=C(Nc1ccno1)Nc1ccc(Cl)cc1Cl [Compound 7],caspase 3 activity in infected cells,caspase 3,significantly higher activity
same,Caspase 8 activity in infected HeLa cells,caspase 8,significantly higher activity
same,inhibition of Listeria monocytogenes infection of HeLa cells,[1],able to actively inhibit
CC(C)(C)NCC(O)COc1ccccc1C1CCCC1 (stereo not shown) [Compound 2],caspase 3 activity in infected cells,caspase 3,significantly higher activity
Cc1cc(Nc2ncnc3ccc(-c4ccc(CNCCS(C)(=O)=O)o4)cc23)ccc1Oc1ccn2ncnc2c1 [Compound 5],caspase 3 activity in infected cells,caspase 3,significantly higher activity
same,Caspase 8 activity in infected HeLa cells,caspase 8,significantly higher activity
same,inhibition of Listeria monocytogenes infection of HeLa cells,[1],able to actively inhibit
Cc1nc2c([nH]1)CCN(C(=O)c1ccc(NC(=O)c3ccccc3-c3ccccc3)cc1)c1ccccc1-2 [Compound 6],caspase 3 activity in infected cells,caspase 3,significantly higher activity
CCc1cc2c(cc1CC)CC(NC[C@@H](O)c1ccc(O)c3[nH]c(=O)ccc13)C2 [Compound 8],caspase 3 activity in infected cells,caspase 3,significantly higher activity
same,inhibition of Listeria monocytogenes infection of HeLa cells,[1],able to actively inhibit
